Source: patent US8309550B2, “Kinase inhibitors and their use as pharmaceutical agents” (Shanghai Genomics, Inc., priority 2011, dated 2012)

Legend:
[1] = test system: K562 cells; assay: 72 h MTT cytotoxicity assay K562; format: cell-based; conditions: Homo sapiens; K562, 72 hrs
Source text: (§1) MIT cytotoxicity assay. The compounds of the invention were subjected to a standard cellular proliferation assay using human cell lines. HeLa cells (Human cervix adenocarcinoma cell line, ATCC NO, CCL-2); A549 cells (Human lung carcinoma cells line, ATCC NO, CCL-185); U2OS cells (Human osteosarcoma cell line, ATCC NO, HTB-96); Eca-109 cells (Human esophageal carcinoma cell line); HepG2 (Human hepatocellular liver carcinoma cell line, ATCC NO, HB-8065); K562 cells (Human chronic myelogenous leukemia cell line, ATCC NO, CCL-243); SK-MEL-28 (Human malignant melanoma cell line, ATCC NO, HTB-72); Molt-4 (Human acute lymphoblastic leukemia cell line, ATCC NO, CRL-1582); H460 (Human large cell lung cancer cell line, ATCC NO, HTB-177); MDA-MB-231 (Human breast adenocarcinoma cell line, ATCC NO, HTB-26); MCF7 (Human breast adenocarcinoma cell line, ATCC NO, HTB-22); ACHN (Human renal cell adenocarcinoma cell line, ATCC NO, CRL-1611); PC-3M (Human prostate adenocarcinoma cell line, ATCC NO CRL-1435); HL60 (Human acute promyelocytic leukemia cell line, ATCC NO, CCL-240); THP-1 (Human acute monocytic leukemia, ATCC NO, TIB-202); Jurkat (Human acute T cell leukemia cell line, ATCC NO, CRL-2063); HCT-116 (Human colorectal carcinoma cell line, ATCC NO, CCL-247); HT-29 (Human colorectal adenocarcinoma cell line, ATCC NO, HTB-38™); WI-38 (Human normal lung cell line, ATCC NO, CCL-75); MRC-5 (Human normal lung cell line, ATCC NO, CCL-171).
(§2) HepG2, MDA-MB-231, WI-38 and MRC-5 cells were obtained from Shanghai Institute of Cell Biology, Chinese Academy of Sciences (Shanghai 200031, China). A549, HeLa, K562, MCF7, ACHN, H460, U2OS, Eca-109, MCF7, HL60, THP-1, Jurkat, HCT-116, HT-29, PC-3M, SK-MEL-28, Molt-4, H460 and […] cells were purchased from ATCC (American Type Culture Collection, USA).
(§3) Standard 72 h MTT (thiazolye blue; 3-[4,5-dimethylthiazol-2-yl]-2,5-diphenyltetrazolium bromide) assays were performed. Briefly, the cell lines used in this study were recovered and cultured according to the conditions recommended. 4000 cells per well were seeded into 96-well plates according to doubling time and incubated overnight at 37° C. Compounds were prepared in DMSO and a ½ dilution series in 100 μl cell culture media, added to cells (in duplicates) with the final DMSO concentration of 0.025%, and incubated for 72 hrs at 37° C. MTT solution (5 mg/ml) was added at 10 μl per well and incubated in the dark at 37° C. for 4 hr. Culture medium and MTT solution was removed. MTT dye was solubilised with 100 μl per well of DMSO with agitation. Absorbance was read at 562 nm and data analyzed using Sigmoid curve-fitting software Origin 6.0 (MicroCal, LLC, USA) to determine IC50 value.

[2] = biological target: T1, Aurora A (Homo sapiens, UniProt O14965); assay: Z'-LYTE kinase assay Aurora A; format: biochemical; conditions: read-out: Kinase inhibition, IC50 Aurora A
T1 construct: purchased Invitrogen PV3612
T1 sequence (O14965 1-403): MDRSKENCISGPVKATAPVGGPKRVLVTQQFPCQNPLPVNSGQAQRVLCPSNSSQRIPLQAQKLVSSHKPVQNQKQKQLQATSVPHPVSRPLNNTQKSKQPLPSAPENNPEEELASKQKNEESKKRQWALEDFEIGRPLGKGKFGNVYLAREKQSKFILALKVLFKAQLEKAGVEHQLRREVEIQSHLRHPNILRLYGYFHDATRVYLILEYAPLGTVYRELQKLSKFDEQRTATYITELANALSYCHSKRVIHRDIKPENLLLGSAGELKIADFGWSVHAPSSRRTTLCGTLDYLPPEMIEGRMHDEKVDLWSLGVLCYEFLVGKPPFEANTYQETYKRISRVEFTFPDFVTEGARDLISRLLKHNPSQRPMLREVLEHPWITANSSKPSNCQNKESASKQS
Experimental: (§4) Kinase assays. The compounds from the example above were tested for their ability to inhibit kinases. Recombinant human CDK2/cyclinA (PV3267), CDK1/cyclinB (PV3292), CDK5/p35 (PV3000) and Aurora A (PV3612) were purchased from Invitrogen (Carlsbad, Calif., USA). Kinase dosage and Z′-LYTE™ substrate for each kinase assay is as follows: CDK2/cyclinA-8 ng/reaction, Ser/Thr 12 Peptide; CDK1/cyclinB-0.8 ng/reaction, Ser/Thr 12 Peptide, CDK5/p35-0.8 ng/reaction, Ser/Thr 12 Peptide, and Aurora A-16 ng/reaction, Ser/Thr 1 Peptide. All enzymatic assays were performed using Z′-LYTE™ Kinase Assay Kits and were carried out following protocols provided by Invitrogen. To prepare stock solutions, compounds were dissolved at 10 mM in 100% DMSO and stored at 4° C. in amber glass vials. Enzyme reactions were initiated by adding recombinant enzyme and Z′-LYTE™ Ser/Thr peptide substrate and ATP mixture to 384-well plates containing diluted test compounds. Kinase and corresponding peptide substrate were incubated for 1 hr at room temperature in the presence of varying amounts of test compound with reaction buffer (20 μM ATP, […] [pH 7.5], 5 mM MgCl2, 0.5 mM EGTA, 0.005% Brij-35). Development buffer was added and incubated for another one hour at room temperature. Reactions were terminated by addition of stop buffer, and fluorescence emission intensity ratio 445 nm/520 nm (excited at 400 nm) was quantified by VICTOR-3 Multilabel Reader (Perkin-Elmer, Waltham, Mass., USA). Phosphorylation was calculated from the emission ratio. IC50 was determined using Sigmoid curve-fitting software Origin 6.0 (MicroCal, LLC, Northampton, Mass., USA).

[3] = test system: Molt-4-luc; assay: 72 h MTT cytotoxicity assay Molt-4-luc; format: cell-based; conditions: Homo sapiens
Source text: as §1, §2, §3

[4] = biological target: T2, CDK2/cyclinA (Homo sapiens, UniProt P24941); assay: Z'-LYTE kinase assay CDK2/cyclinA; format: biochemical; conditions: read-out: Kinase inhibition, IC50 CDK2A
T2 construct: purchased Invitrogen PV3267
Experimental: as §4

[5] = biological target: T3, CDK1/cyclinB (Homo sapiens, UniProt P06493); assay: Z'-LYTE kinase assay CDK1/cyclinB; format: biochemical; conditions: read-out: Kinase inhibition, IC50 CDK1B
T3 construct: purchased Invitrogen PV3292
T3 sequence (P06493 whole entry): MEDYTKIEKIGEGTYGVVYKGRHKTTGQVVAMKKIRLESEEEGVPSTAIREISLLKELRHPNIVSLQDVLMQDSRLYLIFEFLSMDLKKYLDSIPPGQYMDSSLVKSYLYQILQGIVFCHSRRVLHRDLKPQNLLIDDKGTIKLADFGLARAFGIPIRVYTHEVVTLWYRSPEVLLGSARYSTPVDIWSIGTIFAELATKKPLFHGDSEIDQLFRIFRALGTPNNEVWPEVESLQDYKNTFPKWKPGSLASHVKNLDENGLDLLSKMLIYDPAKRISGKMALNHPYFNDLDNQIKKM
T3 sequence (P14635 whole entry partner): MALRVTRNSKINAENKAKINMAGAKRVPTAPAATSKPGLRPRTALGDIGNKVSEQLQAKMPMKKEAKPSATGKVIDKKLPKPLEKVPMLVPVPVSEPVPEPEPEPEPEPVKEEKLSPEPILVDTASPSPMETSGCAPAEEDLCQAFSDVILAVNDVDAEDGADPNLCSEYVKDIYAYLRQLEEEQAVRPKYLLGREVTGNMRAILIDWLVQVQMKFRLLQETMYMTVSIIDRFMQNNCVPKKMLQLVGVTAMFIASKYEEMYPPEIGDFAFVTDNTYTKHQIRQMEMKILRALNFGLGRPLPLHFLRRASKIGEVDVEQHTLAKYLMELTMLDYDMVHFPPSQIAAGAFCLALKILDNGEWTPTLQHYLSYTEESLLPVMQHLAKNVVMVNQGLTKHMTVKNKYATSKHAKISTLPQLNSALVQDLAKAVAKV
Experimental: as §4

[6] = biological target: T4, CDK5/p35 (Homo sapiens, UniProt Q00535); assay: Z'-LYTE kinase assay CDK5/p35; format: biochemical; conditions: read-out: Kinase inhibition, IC50 CDK5/p35
T4 construct: purchased Invitrogen PV3000
T4 sequence (Q00535 whole entry): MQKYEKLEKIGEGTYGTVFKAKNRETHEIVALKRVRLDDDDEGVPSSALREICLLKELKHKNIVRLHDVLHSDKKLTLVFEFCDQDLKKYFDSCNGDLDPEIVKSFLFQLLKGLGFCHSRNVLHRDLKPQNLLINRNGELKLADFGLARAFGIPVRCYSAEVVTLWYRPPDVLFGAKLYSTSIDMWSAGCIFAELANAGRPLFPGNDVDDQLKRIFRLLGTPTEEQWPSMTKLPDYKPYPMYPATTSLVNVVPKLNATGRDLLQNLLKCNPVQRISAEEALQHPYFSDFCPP
T4 sequence (Q15078 whole entry partner): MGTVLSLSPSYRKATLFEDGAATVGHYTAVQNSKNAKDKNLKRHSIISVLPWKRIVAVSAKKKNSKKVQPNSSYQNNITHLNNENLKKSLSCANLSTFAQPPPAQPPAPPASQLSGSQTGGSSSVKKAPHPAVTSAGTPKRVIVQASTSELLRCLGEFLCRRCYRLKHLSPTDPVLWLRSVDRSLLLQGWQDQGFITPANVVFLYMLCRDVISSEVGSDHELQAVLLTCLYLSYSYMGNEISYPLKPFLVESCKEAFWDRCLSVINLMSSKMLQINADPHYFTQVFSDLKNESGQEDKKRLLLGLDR
Experimental: as §4

[7] = biological target: Aurora B (Homo sapiens, UniProt Q96GD4); assay: Kinase assay Aurora B (Table I); format: biochemical; conditions: read-out: Kinase inhibition, IC50 Aurora B
Sequence of Aurora B (Q96GD4 whole entry): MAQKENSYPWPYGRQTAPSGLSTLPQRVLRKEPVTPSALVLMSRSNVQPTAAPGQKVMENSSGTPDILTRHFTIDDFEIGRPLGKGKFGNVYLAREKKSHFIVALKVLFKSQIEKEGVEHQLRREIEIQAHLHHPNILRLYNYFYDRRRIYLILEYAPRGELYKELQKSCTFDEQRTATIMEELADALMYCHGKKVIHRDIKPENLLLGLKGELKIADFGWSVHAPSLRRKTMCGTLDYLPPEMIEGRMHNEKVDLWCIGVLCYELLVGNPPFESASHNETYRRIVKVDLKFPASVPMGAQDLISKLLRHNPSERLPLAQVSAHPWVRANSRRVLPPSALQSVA
Experimental: [The source words this procedure for another target and reports this target under the same test.] as §4

[8] = test system: U2OS cells; assay: 72 h MTT cytotoxicity assay U2OS; format: cell-based; conditions: Homo sapiens
Source text: as §1, §2, §3

[9] = test system: HepG2; assay: 72 h MTT cytotoxicity assay HepG2; format: cell-based; conditions: Homo sapiens; HepG2, 72 hrs
Source text: as §1, §2, §3

[10] = test system: Eca-109 cells; assay: 72 h MTT cytotoxicity assay Eca-109; format: cell-based; conditions: Homo sapiens; Eca-109, 72 hrs
Source text: as §1, §2, §3

[11] = test system: MCF7; assay: 72 h MTT cytotoxicity assay MCF7; format: cell-based; conditions: Homo sapiens; MCF7, 72 hrs
Source text: as §1, §2, §3

[12] = test system: H460-luc; assay: 72 h MTT cytotoxicity assay H460-luc; format: cell-based; conditions: Homo sapiens, NCI-H460-Luc; H460-luc, 72 hrs; read-out: Cytotoxicity, MTT 72 hrs, IC50 H460-luc
Source text: as §1, §2, §3

[13] = test system: SK-MEL-28-luc; assay: 72 h MTT cytotoxicity assay SK-MEL-28-luc; format: cell-based; conditions: Homo sapiens
Source text: as §1, §2, §3

[14] = test system: WI-38; assay: 72 h MTT cell viability WI-38 (normal lung); format: cell-based; conditions: Homo sapiens; WI-38, normal lung cell line
Source text: as §1, §2, §3

[15] = test system: MDA-MB-231-luc; assay: 72 h MTT cell viability MDA-MB-231-luc; format: cell-based; conditions: Homo sapiens
Source text: as §1, §2, §3

[16] = test system: A549 cells; assay: 72 h MTT cytotoxicity assay A549; format: cell-based; conditions: Homo sapiens; A549, 72 hrs
Source text: as §1, §2, §3

[17] = test system: HeLa cells; assay: 72 h MTT cytotoxicity assay HeLa; format: cell-based; conditions: Homo sapiens
Source text: as §1, §2, §3

[18] = test system: ACHN-luc; assay: 72 h MTT cell viability ACHN-luc; format: cell-based; conditions: Homo sapiens
Source text: as §1, §2, §3

[19] = biological target: CDK9T1 (Homo sapiens, UniProt P50750); assay: Kinase assay CDK9T1 (Table I); format: biochemical; conditions: read-out: Kinase inhibition, IC50 CDK9T1
Sequence of CDK9T1 (P50750 whole entry): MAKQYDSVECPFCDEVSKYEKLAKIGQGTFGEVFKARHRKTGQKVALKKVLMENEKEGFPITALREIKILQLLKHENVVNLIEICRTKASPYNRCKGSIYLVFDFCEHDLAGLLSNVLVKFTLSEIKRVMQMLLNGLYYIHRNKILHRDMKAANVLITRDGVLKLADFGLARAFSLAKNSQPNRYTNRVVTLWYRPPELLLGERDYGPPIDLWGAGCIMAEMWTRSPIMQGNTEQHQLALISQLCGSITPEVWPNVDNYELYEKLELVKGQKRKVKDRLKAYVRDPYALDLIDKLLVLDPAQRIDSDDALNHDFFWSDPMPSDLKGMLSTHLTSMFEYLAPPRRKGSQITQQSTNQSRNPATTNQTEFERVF
Sequence of CDK9T1 (O60563 whole entry partner): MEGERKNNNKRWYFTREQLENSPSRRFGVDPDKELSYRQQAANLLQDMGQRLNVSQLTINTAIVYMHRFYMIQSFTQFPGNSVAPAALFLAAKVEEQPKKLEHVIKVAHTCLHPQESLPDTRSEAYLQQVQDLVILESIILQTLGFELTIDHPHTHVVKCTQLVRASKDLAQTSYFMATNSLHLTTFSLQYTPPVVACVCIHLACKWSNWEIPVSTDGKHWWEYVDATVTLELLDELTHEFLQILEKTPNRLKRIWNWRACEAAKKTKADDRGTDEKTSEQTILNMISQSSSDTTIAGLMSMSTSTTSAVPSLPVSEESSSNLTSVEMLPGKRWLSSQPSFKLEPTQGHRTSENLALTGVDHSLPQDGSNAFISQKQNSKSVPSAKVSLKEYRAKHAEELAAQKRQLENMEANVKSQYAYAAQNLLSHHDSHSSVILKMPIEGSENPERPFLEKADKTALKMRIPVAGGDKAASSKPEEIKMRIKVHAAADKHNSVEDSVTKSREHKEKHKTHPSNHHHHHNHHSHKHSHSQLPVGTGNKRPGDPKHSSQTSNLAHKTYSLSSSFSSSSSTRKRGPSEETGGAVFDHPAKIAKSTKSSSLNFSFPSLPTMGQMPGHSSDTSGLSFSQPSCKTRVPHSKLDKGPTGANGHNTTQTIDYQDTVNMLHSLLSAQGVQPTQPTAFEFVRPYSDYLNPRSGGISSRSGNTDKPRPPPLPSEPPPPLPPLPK
Experimental: [The source words this procedure for another target and reports this target under the same test.] as §4

[20] = test system: PC-3M-luc; assay: 72 h MTT cell viability PC-3M-luc; format: cell-based; conditions: Homo sapiens
Source text: as §1, §2, §3

[21] = test system: HL-60; assay: 72 h MTT cell viability HL-60; format: cell-based; conditions: Homo sapiens
Source text: as §1, §2, §3

[22] = test system: THP-1; assay: 72 h MTT cell viability THP-1; format: cell-based; conditions: Homo sapiens, THP-1; read-out: Cell Viability IC50 THP-1
Source text: as §1, §2, §3

Structure (SMILES)	IC50 [2]	IC50 [4]	IC50 [5]	IC50 [6]	IC50 [7]	IC50 [15]	IC50 [18]	IC50 [19]	IC50 [20]	IC50 [1]	IC50 [3]	IC50 [8]	IC50 [9]	IC50 [10]	IC50 [11]	IC50 [12]	IC50 [13]	IC50 [14]	IC50 [16]	IC50 [17]	also measured
Cn1cc(-c2ccnc(Nc3cccc(O)c3)n2)c2ccccc21 [Compound 1, 3-(4-(1-Methyl-1H-indol-3-yl)pyrimidin-2-ylamino)phenol]	0.28 µM	0.543 µM	2.5 µM	2.61 µM	0.34 µM	6.33 µM	9.82 µM	–	–	4.78 µM	6.4 µM	5.99 µM	4.55 µM	14.2 µM	10.1 µM	6.19 µM	6.47 µM	> 10 µM	6.03 µM	4.7 µM	–
Cn1cc(-c2ccnc(Nc3ccc(O)cc3)n2)c2ccccc21 [Compound 2, 4-(4-(1-Methyl-1H-indol-3-yl)pyrimidin-2-ylamino)phenol]	0.15 µM	0.305 µM	0.742 µM	0.95 µM	0.2 µM	6.16 µM	23.4 µM	0.043 µM	–	6.17 µM	6.3 µM	7.33 µM	5.97 µM	14.5 µM	9.56 µM	6.39 µM	6.37 µM	> 10 µM	8.29 µM	4.93 µM	–
CCCn1cc(-c2ccnc(Nc3cccc([N+](=O)[O-])c3)n2)c2cccnc21 [Compound 17, N-(3-Nitrophenyl)-4-(1-propyl-1H-pyrrolo[2,3-b]pyridin-3-yl)pyrimidin-2-amine]	1.16 µM	0.463 µM	7.64 µM	> 10 µM	> 10 µM	2.63 µM	2.45 µM	0.16 µM	–	2.31 µM	6.29 µM	4.91 µM	1.19 µM	6.06 µM	4.93 µM	2.49 µM	5.48 µM	> 10 µM	2.19 µM	4.22 µM	–

Continued by falling IC50 [2], values first:

IC50 [2]	IC50 [4]	IC50 [5]	IC50 [6]	IC50 [7]	IC50 [15]	IC50 [18]	IC50 [19]	IC50 [20]	Structure (SMILES)	IC50 [1]	IC50 [3]	IC50 [8]	IC50 [9]	IC50 [10]	IC50 [11]	IC50 [12]	IC50 [13]	IC50 [14]	IC50 [16]	IC50 [17]	also measured
1.28 µM	0.0038 µM	0.18 µM	0.19 µM	–	0.44 µM	0.51 µM	0.024 µM	0.89 µM	CCn1cc(-c2ccnc(Nc3cccc(S(N)(=O)=O)c3)n2)c2ccnc(Cl)c21 [Compound 73, 3-(4-(7-Chloro-1-ethyl-1H-pyrrolo[2,3-c]pyridin-3-yl)pyrimidin-2-ylamino)benzenesulfonamide]	–	0.43 µM	0.41 µM	0.18 µM	> 10 µM	–	0.315 µM	0.49 µM	> 10 µM	0.37 µM	–	IC50 [21]: 0.43 µM; IC50 [22]: 2.74 µM
0.62 µM	1.67 µM	> 10 µM	> 10 µM	0.32 µM	2.03 µM	13.7 µM	0.057 µM	> 10 µM	CCCn1cc(-c2ccnc(Nc3ccc(S(N)(=O)=O)cc3)n2)c2nc(Cl)cc(C)c21 [Compound 39, 4-(4-(5-Chloro-7-methyl-1-propyl-1H-pyrrolo[3,2-b]pyridin-3-yl)pyrimidin-2-ylamino)benzenesulfonamide]	4.72 µM	5.25 µM	1.26 µM	0.1 µM	3.7 µM	> 10 µM	1.03 µM	3.41 µM	–	0.42 µM	3.3 µM	IC50 [21]: 1.27 µM
0.29 µM	0.272 µM	1.34 µM	3.18 µM	1.44 µM	8.51 µM	3.46 µM	0.11 µM	–	CCn1cc(-c2ccnc(Nc3cccc(C(N)=O)c3)n2)c2cccnc21 [Compound 19, 3-(4-(1-Ethyl-1H-pyrrolo[2,3-b]pyridin-3-yl)pyrimidin-2-ylamino)benzamide]	15.4 µM	6.66 µM	9.54 µM	1.41 µM	> 10 µM	3.96 µM	3.63 µM	> 10 µM	> 10 µM	3.43 µM	4.33 µM	–
